Source: PMC11111404, “Discovery of potent small-molecule inhibitors of lipoprotein(a) formation” (Nature, 2024)
Where “and” joins values, the source holds several entries; their conditions need not be identical. Equal entries are not always repeated. Where two headings read alike, the source gives them in different places. Marks after values point to notes of the source that are not given here.

Assays:
Lp(a) = Lp(a) levels in cynomolgus monkeys; format: in vivo, cynomolgus monkey (Macaca fascicularis); parameters: key to Mean_pCFB_vs_Veh / Mean_pCFB_vs_Veh (Lp(a)): % change from pre-dose, treated group compared with vehicle; key to Mean_pCFB / Mean_pCFB (Lp(a)): % change in Lp(a) from before dosing; Lp(a): unit not given here; settings: for Mean_pCFB / Mean_pCFB_vs_Veh: Lp(a); for Mean_pCFB / Mean_pCFB_vs_Veh / Lp(a) / pCFB (Lp(a) pct change from baseline): female cynomolgus monkeys
Procedure: Female or male Chinese Macaca fascicularis cynomolgus monkeys (as described in the figure legends) of unspecified ages with body weight ranging from 2.0 kg to 5.0 kg were housed in cages with a standard light cycle (12-h light, 12-h dark) at room temperature (20–26 °C); the relative humidity ranged from 30% to 70%. Monkeys were given fruits, vegetables or dietary enrichment as a form of environmental enrichment, and various cage enrichment devices. Purina Lab diet 5048C was provided BID and individual monkeys were identified by cage card. The monkeys were randomized to treatment groups by body weight and baseline plasma Lp(a) concentration, as determined by a commercially available Randox assay (Randox LP2757), using a BRAT for the study. In an example cynomolgus monkey study in which 39 monkeys were prescreened for baseline Lp(a) levels, the average Lp(a) level was 350 ± 57 µg ml^−1 (range 53–1,667 µg ml^−1). Monkeys were dosed orally with vehicle (purified water) or compounds QD or BID for 14 days, at dose levels and frequencies as previously described for each compound. Plasma samples were collected on days before dosing to establish baseline Lp(a) and after the morning dose during the study. Lp(a) levels were measured by an investigator who was blinded to group allocation using the Randox assay, and were quantified relative to the calibrator series (Randox LP3404). Data were analysed in GraphPad Prism v.9.5.1. The Lp(a) percentage change from before dosing in non-human primates was analysed by repeated measures ANOVA in SAS v.9.4 (SAS). At each time point, the Lp(a) percentage change for each treated group was compared with vehicle by the Bonferroni method.

[1] = Drug concentration in mouse blood after oral dosing; format: in vivo; settings: female, whole blood (dried blood spots), day 5, read-out: Drug concentration, 4-h time point
Procedure: The LPA gene (GenBank accession code NM_005577) encoding the human apo(a) protein with a signal peptide, one KIV type 1, six KIV type 2 repeats, one each of KIV types 3–10, one KV and one protease domain was subcloned into a transgenic vector containing a mouse albumin promoter cassette and a human growth hormone polyadenylation signal. The transgenic mouse line was generated by pronucleus injection of the LPA transgenic vector. Eight individual transgenic founder mice were assessed for germline transmission of LPA by genotyping and assessment of the levels of apo(a) in the plasma. Positive founder mice were crossed with ApoB100 transgenic mice (Taconic model 1004), and the resulting mouse line nomenclature (B6.SJL-Tg(APOB)1102Sgy Tg(Alb-LPA)32Arte) was selected on the basis of the confirmation of germline transmission, the identification of LPA and huApoB100 transgenes and the levels of Lp(a) in the plasma. Mice hemizygous for both transgenes were used for pharmacology studies. The studies were conducted in female Lp(a) double transgenic mice (age around 7–17 months). Mice were housed in cages with a standard light cycle (12-h light, 12-h dark), at room temperature (22 ± 4 °C), with a relative humidity of 30–70%. Mice were identified by numbers on the cage cards. After arrival, mice were fed on a normal diet (Harlan Teklad diet 2014). Mice were randomized to treatment groups (n = 5 per group, unless otherwise noted) by body weight and baseline plasma Lp(a) concentration using a block randomized allocation tool (BRAT) for the study. In an example Lp(a) transgenic mouse study in which 66 mice were prescreened for baseline Lp(a) levels, the average Lp(a) level was 45 ± 1.8 µg ml^−1 (range 20–78 µg ml^−1). Mice were dosed with various compounds in vehicle (10 ml kg^−1, 1% hydroxyethyl cellulose (HEC), 0.25% Tween-80, Antifoam) or with vehicle alone as a control orally BID for five days. Blood samples were collected by tail bleeds at designated times, and Lp(a) levels were determined by ELISA by an investigator who was blinded to group allocation. In brief, lipoprotein particles were captured by a goat anti-Lp(a)-antibody-coated plate (Abcam ab31675, diluted 1:12,500 in HEPES-buffered saline), the plates were washed and samples were detected using an HRP-conjugated goat anti-apoB antibody (Abcam ab27622, diluted 1:3,000). Colorimetric peroxidase substrate 3,3’,5,5’-TMB was added, and the reaction was stopped using 1 N sulfuric acid. Absorbance at 450 nm was read on a Molecular Devices SpectraMax plate reader. Blood samples were collected at four hours after dosing on day 5 of dosing to confirm exposure. Full pharmacokinetic (PK) profiles were not evaluated. Concentrations of compounds were evaluated from dried blood spots through a non-Good Laboratory Practice (GLP) liquid chromatography with tandem mass spectrometry (LC–MS/MS) assay. Data were analysed in GraphPad Prism v.9.5.1

[2] = oral BID, day 1, individual animal
[3] = oral BID, day 3, individual animal
[4] = oral BID, day 5, individual animal
[5] = oral BID, day 9, individual animal
[6] = oral BID, day 14, individual animal
[7] = oral QD, day 1, individual animal
[8] = oral QD, day 3, individual animal
[9] = oral QD, day 5, individual animal
[10] = oral QD, day 9, individual animal
[11] = oral QD, day 14, individual animal

## Cl.O=C(O)[C@@H](Cc1ccccc1)[C@H]1CCNC1 [LSN3353871]
Lp(a); BID, day 1
  Mean_pCFB: -17.16
  Mean_pCFB_vs_Veh: 1.08
Lp(a); BID, day 3
  Mean_pCFB: -35.64
  Mean_pCFB_vs_Veh: -13.27
Lp(a); BID, day 5
  Mean_pCFB: -39.65
  Mean_pCFB_vs_Veh: -25.29
Lp(a); BID, day 9
  Mean_pCFB: -24.57
  Mean_pCFB_vs_Veh: -29.9
Lp(a); BID, day 14
  Mean_pCFB: -34.78
  Mean_pCFB_vs_Veh: -34.93
Lp(a); QD, day 1
  Mean_pCFB: -15.58
  Mean_pCFB_vs_Veh: 2.65
Lp(a); QD, day 3
  Mean_pCFB: -24.41
  Mean_pCFB_vs_Veh: -2.03
Lp(a); QD, day 5
  Mean_pCFB: -27.62
  Mean_pCFB_vs_Veh: -13.26
Lp(a); QD, day 9
  Mean_pCFB: -15.91
  Mean_pCFB_vs_Veh: -21.23
Lp(a); QD, day 14
  Mean_pCFB: -9.51
  Mean_pCFB_vs_Veh: -9.65
Lp(a); cynomolgus monkeys, 20 mg kg^−1 BID for two weeks
  decrease in Lp(a) levels: up to 40%
Lp(a); cynomolgus monkeys, 20 mg/kg BID, 14 days dosing
  %Lp(a) max decrease (dose, mg/kg): 40 (20)^b %
Lp(a); BID group, day -1 (before dosing), individual animal
  Lp(a): 62.7685 and 48.163 and 60.7172 and 13.635 and 18.9902 and 51.942 and 61.5505 and 31.6327
Lp(a); BID group, day -14 (before dosing), individual animal
  Lp(a): 63.283 and 50.674 and 55.2892 and 13.5483 and 15.2575 and 51.2555 and 54.086 and 23.9562
Lp(a); QD group, day -1 (before dosing), individual animal
  Lp(a): 64.272 and 49.5175 and 60.6415 and 25.2005
Lp(a); QD group, day -14 (before dosing), individual animal
  Lp(a): 61.406 and 37.9278 and 38.7218 and 35.5823
Lp(a); [2]
  Lp(a): 52.535 and 44.0168 and 46.6457 and 12.9142 and 11.7935 and 42.9437 and 23.7942 and 44.7918
  pCFB (Lp(a) pct change from baseline): -10.9306 and -19.5807 and -4.985 and -31.1282 and -18.9955 and -14.3923 and -20.5861 and -16.6452
Lp(a); [3]
  Lp(a): 45.0043 and 39.4997 and 31.6748 and 8.965 and 6.9825 and 34.2685 and 20.4107 and 36.1685
  pCFB (Lp(a) pct change from baseline): -20.0709 and -45.3913 and -34.0392 and -59.2235 and -35.3595 and -26.5656 and -35.8749 and -28.5937
Lp(a); [4]
  Lp(a): 38.5745 and 31.448 and 28.6503 and 10.7198 and 9.08 and 32.1393 and 18.0332
  pCFB (Lp(a) pct change from baseline): -38.7957 and -36.3639 and -50.6056 and -21.1294 and -46.9735 and -39.3758 and -35.1194 and -48.839
Lp(a); [5]
  Lp(a): 44.675 and 39.068 and 37.0712 and 13.4855 and 14.776 and 41.9348 and 17.9605
  pCFB (Lp(a) pct change from baseline): -29.1163 and -20.9446 and -36.0875 and -0.7811 and -13.7109 and -20.8987 and -35.3809 and -39.6451
Lp(a); [6]
  Lp(a): 55.7647 and 33.5363 and 40.4025 and 9.657 and 7.2775 and 34.1767 and 13.5137
  pCFB (Lp(a) pct change from baseline): -11.5208 and -32.1383 and -30.3443 and -28.9479 and -57.5008 and -35.5326 and -51.38 and -30.8982
Lp(a); [7]
  Lp(a): 48.1358 and 37.1353 and 55.4155 and 18.3242
  pCFB (Lp(a) pct change from baseline): 11.5412 and -39.7058 and -6.086 and -13.177 and -16.5026 and -22.2746 and -23.3982 and -15.0662
Lp(a); [8]
  Lp(a): 39.5063 and 29.6812 and 40.6228 and 20.1472
  pCFB (Lp(a) pct change from baseline): -18.2339 and -33.7073 and 11.9206 and -19.0783 and -28.1629 and -38.7431 and -37.1309 and -32.1149
Lp(a); [9]
  Lp(a): 37.3218 and 25.577 and 40.148 and 26.2523
  pCFB (Lp(a) pct change from baseline): -19.1894 and -13.6191 and -4.001 and -34.7759 and -8.718 and -58.5688 and -40.6072 and -41.5017
Lp(a); [10]
  Lp(a): 56.5955 and 31.4135 and 43.3325 and 24.1392
  pCFB (Lp(a) pct change from baseline): -12.7796 and -20.572 and 2.106 and -9.614 and -0.2146 and -48.0895 and -9.936 and -28.1528
Lp(a); [11]
  Lp(a): 39.3452 and 48.5785 and 37.4098 and 37.2848
  pCFB (Lp(a) pct change from baseline): -24.9526 and -29.9842 and 41.651 and -25.3919 and 24.0547 and -24.319 and -22.6937 and -14.4384
[1]; oral 3 mg/kg
  concentration at 4 h: 13.6 µM
[1]; oral 10 mg/kg
  concentration at 4 h: 21.6 µM
[1]; oral 30 mg/kg
  concentration at 4 h: 28 µM
[1]; oral 100 mg/kg
  concentration at 4 h: 38 µM
